How the values were obtained:
[1] = target: porcine Na^+/K^+-ATPase (purified NKA from S. domesticus cerebral cortex); assay: Na+/K+ ATPase (NKA) inhibitory activity assay (inorganic phosphate released from ATP, absorbance at 700 nm); format: biochemical; conditions: unadapted NKA from Sus domesticus; read-out: IC50 against porcine NKA
Description: We tested the inhibitory capacity of the new compounds 1 and 2 and the known cardenolides 5–10 against porcine NKA. We used an in vitro assay to determine the IC50 of each compound and used ouabain as a reference.
We quantified the NKA inhibitory activity of the isolated cardenolides using purified NKA from S. domesticus cerebral cortex (Sigma-Aldrich-A7510-5UN, Steinheim, Germany), following protocols standardized by Petschenka et al.. Briefly, porcine NKA was diluted in di-water to a final assay concentration of 0.01 U/mL. The ATPase was exposed to exponentially decreasing concentrations from 10^−3 to 10^−8 M of ouabain (Sigma-Aldrich, O3125-1G, Steinheim, Germany) or the cardenolides 1–2 and 5–10. […] The NKA activity after cardenolide exposure was determined by quantification of inorganic phosphate released from enzymatically hydrolysed ATP. The […] levels were measured by photometric determination, reading the absorbance at 700 nm with a microplate reader (BMG Clariostar, BMG Labtech, Germany). The absorbance of each reaction was corrected with the respective background, and the inhibition curves were plotted in R studio [61] with log10-transformed cardenolide concentration versus percent of uninhibited control, with top and bottom asymptotes set to 1 and 0, respectively. […] IC50 values for each cardenolide and ouabain were also calculated from the inhibition curves using R studio. […]

porcine NKA = system: porcine NKA; design: method as in PMID 33850021; conditions: cited from earlier work

C[C@H]1O[C@@H](O[C@H]2CC[C@@]3(C=O)[C@@H](CC[C@@H]4[C@@H]3CC[C@]3(C)[C@@H](C5=CC(=O)OC5)CC[C@]43O)C2)[C@H](O)[C@H](O)[C@@H]1O [Compound 9, gofruside]
IC50 [1]: 96.5 nM

CC1CC(O)C2(O)OC3CC4(C=O)C(CCC5C4CCC4(C)C(C6=CC(=O)OC6)C(O)CC54O)CC3OC2O1 (stereo not drawn) [Compound 10, 16α-hydroxycalotropin]
IC50 [1]: 3670 nM

C[C@@H]1C[C@H](O)[C@]2(O)O[C@@H]3C[C@@]4(C=O)[C@@H](CC[C@@H]5[C@@H]4CC[C@]4(C)[C@@H](C6=CC(=O)OC6)CC[C@]54O)C[C@H]3O[C@@H]2O1 [calotropin]
log10 IC50 against porcine NKA (porcine NKA; log10 of IC50 in M): −6.56 | IC50 (porcine NKA; read-out: IC50 against porcine NKA): 270 nM
